Laboratory results: ChEMBL document CHEMBL1201862, “PubChem BioAssay data set” (2004)
The source made the active and inactive calls.

Columns and labels:
Ephrin type-A receptor 4 = Ephrin type-A receptor 4 (Mus musculus, UniProt Q03137); assay: EphA4 ligand-binding antagonists – biochemical, colorimetric, mouse EphA4, primary screen (AID 689); type: functional
Mucolipin-3 [1] = target: T1, Mucolipin-3 (Homo sapiens, UniProt Q8TDD5); assay: human mucolipin-3 activators, concentration-response – cell-based, calcium fluorescence, dose response (AID 2510); type: functional
T1 sequence (Q8TDD5 whole entry): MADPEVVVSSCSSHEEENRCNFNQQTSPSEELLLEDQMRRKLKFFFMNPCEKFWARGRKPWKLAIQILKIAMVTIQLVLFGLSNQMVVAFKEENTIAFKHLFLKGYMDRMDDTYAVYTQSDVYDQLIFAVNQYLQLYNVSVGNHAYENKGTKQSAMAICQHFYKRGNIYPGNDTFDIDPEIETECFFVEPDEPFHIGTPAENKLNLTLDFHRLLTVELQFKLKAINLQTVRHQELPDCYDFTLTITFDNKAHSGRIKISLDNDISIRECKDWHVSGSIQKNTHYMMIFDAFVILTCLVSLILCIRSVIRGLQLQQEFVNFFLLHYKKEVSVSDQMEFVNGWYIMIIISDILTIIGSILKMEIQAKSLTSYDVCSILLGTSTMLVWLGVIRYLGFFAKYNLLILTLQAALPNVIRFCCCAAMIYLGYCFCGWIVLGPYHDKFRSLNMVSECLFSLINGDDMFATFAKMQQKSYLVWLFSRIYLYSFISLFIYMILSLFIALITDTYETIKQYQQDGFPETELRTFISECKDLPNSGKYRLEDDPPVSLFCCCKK

Mucolipin-3 [2] = target: T1, Mucolipin-3; assay: Dose response cell-based high-throughput screening assay for agonists of the transient receptor potential channel ML3 (TRPML3). [Related pubchem assays: 1526, 1424, 1448 ]; type: functional
Ion channel NompC [3] = target: T2, Ion channel NompC (Danio rerio, UniProt Q7T1G6); assay: Late stage counterscreen for the probe development effort to identify selective agonists of the Transient Receptor Potential Channels 3 (TRPML3): fluorescence-based cell-based dose response assay for TRPN1 agonists.; type: functional
Ion channel NompC [4] = target: T2, Ion channel NompC; assay: Fluorescence counterscreen assay for TRPML3 agonists: dose response cell-based high-throughput screening assay to identify agonists of the transient receptor potential channel N1 (TRPN1). [Related pubchem assays: 1526, 1424, 1448 ]; type: functional
[5] = viability of uninfected HEp-2 cells – cell-based, HTS, cytotoxicity control for RSV inhibitor project, dose response (AID 2410); type: functional; conditions: human respiratory syncytial virus
Vero [6] = assay: inhibition of WNV-induced cytopathic effect – cell-based, CPE readout (AID 1621); type: functional; conditions: Chlorocebus sabaeus
Vero [7] = assay: cells; type: functional, cell-based; conditions: Chlorocebus sabaeus
Vero [8] = assay: cells; type: functional; conditions: Chlorocebus sabaeus
[9] = Luminescent dose response cell-based high throughput screening assay for inhibitors of the Janus kinase 2 mutant JAK2V617F. [Related pubchem assays: 1446 (Primary screen.), 1521 (Confirmation assay.), 1486 (Counter screen.)]; type: functional
Large T antigen = Large T antigen (Simian virus 40, UniProt P03070); type: functional, Betapolyomavirus macacae;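 further: Confirmatory-stage PubChem screen for compounds that inhibit SV40 T antigen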
[10] = target: T3, Voltage-gated inwardly rectifying potassium channel KCNH2 (Homo sapiens, UniProt Q12809); conditions: Potency;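 further: confirmatory quantitative high-throughput screen measuring inhibition of hERG channel activity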
[11] = target: T4, Heat shock factor protein 1 (Mus musculus, UniProt P38532); assay: decrease of HSF1-responsive luciferase luminescence – cell-based, NIH3T3, dose retest, confirmation (AID 2382); type: functional;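 further: NIH3T3 fibroblasts with HSF1-driven luciferase reporter stressed by proteasome inhibitor MG132; luminescence from HSF1-driven luciferase expression after 8 hours of MG132 stress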
T4 sequence (P38532 whole entry): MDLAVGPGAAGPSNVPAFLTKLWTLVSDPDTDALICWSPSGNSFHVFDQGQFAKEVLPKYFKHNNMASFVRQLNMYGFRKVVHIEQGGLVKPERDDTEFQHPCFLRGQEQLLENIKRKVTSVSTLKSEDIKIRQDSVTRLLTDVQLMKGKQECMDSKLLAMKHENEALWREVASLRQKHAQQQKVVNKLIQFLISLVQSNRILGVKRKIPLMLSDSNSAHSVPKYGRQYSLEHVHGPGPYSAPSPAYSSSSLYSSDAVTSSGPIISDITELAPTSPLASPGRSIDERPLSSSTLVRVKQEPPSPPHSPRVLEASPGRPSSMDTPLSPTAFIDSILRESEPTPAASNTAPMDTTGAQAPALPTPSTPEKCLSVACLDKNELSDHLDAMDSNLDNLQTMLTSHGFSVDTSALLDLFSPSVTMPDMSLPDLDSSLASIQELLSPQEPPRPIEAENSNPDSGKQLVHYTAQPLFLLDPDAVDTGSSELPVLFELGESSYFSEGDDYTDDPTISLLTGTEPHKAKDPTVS

[12] = target: T5, Sphingosine 1-phosphate receptor 4 (Homo sapiens, UniProt O95977); assay: Fluorescence dose response cell-based high throughput screening assay for antagonists of the Sphingosine 1-Phosphate Receptor 4 (S1P4). [Related pubchem assays: 1524 (Confirmation in triplicates.), 1510 (Primary screen.)]; type: functional
T5 sequence (O95977 whole entry): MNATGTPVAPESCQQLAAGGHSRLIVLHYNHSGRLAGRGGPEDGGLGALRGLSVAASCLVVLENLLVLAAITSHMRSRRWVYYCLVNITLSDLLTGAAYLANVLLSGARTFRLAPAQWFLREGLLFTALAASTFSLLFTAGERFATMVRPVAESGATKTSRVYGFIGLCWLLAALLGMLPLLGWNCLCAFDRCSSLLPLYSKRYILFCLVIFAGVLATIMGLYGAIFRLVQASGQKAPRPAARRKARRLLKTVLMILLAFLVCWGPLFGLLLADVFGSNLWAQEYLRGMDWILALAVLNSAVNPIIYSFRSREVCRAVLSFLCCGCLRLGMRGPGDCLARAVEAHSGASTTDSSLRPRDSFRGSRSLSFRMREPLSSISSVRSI

[13] = target: Sphingosine 1-phosphate receptor 1 (Homo sapiens, UniProt P21453); type: functional;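 further: Tango beta-arrestin reporter U2OS cells stimulated with S1P near its EC80; inhibitor potency meaning antagonism of receptor activation by the natural agonist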
[14] = target: T6, Microphthalmia-associated transcription factor (Homo sapiens, UniProt O75030); assay: reducers of TRPM1 reporter luminescence, concentration series – cell-based, SK-MEL-5, cherry-picked, set 3, MITF inhibitor project, dose response (AID 493073); type: functional;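 further: SK-MEL-5 melanoma cells with luciferase driven by the MITF target TRPM1 promoter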
T6 sequence (O75030 whole entry): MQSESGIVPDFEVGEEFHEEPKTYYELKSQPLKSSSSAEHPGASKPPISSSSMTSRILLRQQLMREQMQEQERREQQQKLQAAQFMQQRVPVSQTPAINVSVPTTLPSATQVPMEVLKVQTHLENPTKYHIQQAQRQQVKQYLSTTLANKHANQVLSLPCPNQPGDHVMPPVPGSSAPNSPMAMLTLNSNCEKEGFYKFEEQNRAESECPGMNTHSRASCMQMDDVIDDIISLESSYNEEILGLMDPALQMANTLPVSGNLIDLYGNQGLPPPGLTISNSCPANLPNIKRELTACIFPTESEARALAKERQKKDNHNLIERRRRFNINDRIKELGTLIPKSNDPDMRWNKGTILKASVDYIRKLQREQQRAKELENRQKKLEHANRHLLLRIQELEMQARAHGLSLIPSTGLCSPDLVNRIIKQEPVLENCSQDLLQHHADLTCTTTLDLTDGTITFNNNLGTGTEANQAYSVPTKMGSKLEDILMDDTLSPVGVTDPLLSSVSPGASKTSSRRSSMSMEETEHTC

A-375 = assay: proliferation inhibition in MITF-low A375 cells – cell-based, cherry-pick samples, set 2, counter-screen for MITF modulator project, dose response (AID 540335); type: functional; conditions: Homo sapiens
[15] = Fluorescence-based cell-based high throughput dose response assay for inhibitors of the interaction of nucleotide-binding oligomerization domain containing 2 (NOD2) and the receptor-interacting serine-threonine kinase 2 (RIPK2).; type: functional, Homo sapiens; conditions: Homo sapiens
Paired box protein Pax-8 = Paired box protein Pax-8 (Homo sapiens, UniProt Q06710); assay: PAX8 transcriptional activity inhibition in RMG-I – RMG-I cells, luciferase, cherry-pick, dose response (AID 687027); type: functional, cell-based;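 further: luciferase reporter driven by Pax8 target thyroperoxidase promoter measured by SteadyGlo luminescence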
[16] = A549 cell cytotoxicity, dose response, cytotoxicity control, plate reader, cherry-pick, antagonist series (AID 743412); type: functional, cell-based
[17] = toxicity toward HepG2 liver cells – cell-based, plate reader, cherry-pick, antagonist series, cytotoxicity control, dose response (AID 743416); type: functional
[18] = blockers of bursicon-stimulated LGR2 cAMP reporter – cell-based, HEK293, CRE-luciferase reporter, cherry pick, set 2, dose response (AID 743343); type: functional;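 further: transfected cells were stimulated with diluted bursicon conditioned medium after compound addition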
[19] = general cell-killing toxicity readout – plate reader, dry powder samples, cytotoxicity control for PAX8 inhibitor project, dose response (AID 743021); type: functional, cell-based
[20] = blockade of melanocortin 4 receptor signaling – cell-based, plate reader, cherry pick, counter-screen for LGR2 antagonist project, dose response (AID 743444); type: functional;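 further: transfected HEK 293 cells stimulated with alpha-MSH peptide; potency of inhibitors of the alpha-MSH evoked signal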
[21] = viability loss in HEK293 cells – cell-based, plate reader, cherry-picked samples, cytotoxicity control, dose response (AID 743446); type: functional
[22] = target: Potassium voltage-gated channel subfamily KQT member 2 (Rattus norvegicus, UniProt O88943, W236L); assay: potentiation of rat KCNQ2 current – cell-based, automated electrophysiology, mechanism study for KCNQ2 potentiator project, dose response (AID 2603); type: functional
[23] = target: Neuropeptide Y receptor type 1 (Homo sapiens, UniProt P25929); type: functional;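 further: HEK293 cells with a CNG channel challenged with NPY then isoproterenol; potency as antagonist that reverses NPY suppression of cAMP signal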
[24] = target: Neuropeptide Y receptor type 2 (Homo sapiens, UniProt P49146); type: functional, cell-based;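 further: HEK293 cells expressing the receptor and a CNG channel; stimulus was NPY near EC95 followed by isoproterenol to raise cAMP; antagonist potency measured as restoring cAMP signal that NPY suppresses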
[25] = Luminescence Cell-Based Dose Response to Identify Activators of 5'UTR Stem-Loop Driven Prion Protein mRNA Translation in H4-C Neuroglioblastoma Cells. [Related pubchem assays: 1829 (Project Summary), 1814 (Primary HTS)]; type: functional
[26] = Luminescence Cell-Based Dose Response HTS to Identify Activators of Luciferase Translation or Activity in H4 […] Cells. [Related pubchem assays: 1829 (Project Summary), 1814 (Primary HTS)]; type: functional
H4 = assay: Luminescence Cell-Based Dose Response HTS to Identify Activators of 5'UTR Stem-Loop Driven Prion Protein mRNA Translation in H4 Neuroglioblastoma Cells. [Related pubchem assays: 1829 (Project Summary), 1814 (Primary HTS)]; type: functional; conditions: Homo sapiens
[27] = Luminescence Cell-Based Dose Response to Identify Activators of Luciferase Translation or Activity in H4-C Neuroglioblastoma Cells. [Related pubchem assays: 1829 (Project Summary), 1814 (Primary HTS)]; type: functional
[28] = Luminescence Cell-Based Dose Confirmation to Identify Activators of 5'UTR Stem-Loop Driven Alpha-Synuclein mRNA Translation in H4 Neuroglioblastoma Cells. [Related pubchem assays: 1829 (Project Summary), 1814 (Primary HTS)]; type: functional
[29] = target: T7, Oxysterols receptor LXR-beta (Homo sapiens, UniProt P55055); type: functional, cell-based;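 further: agonist activity at LXR measured by a cell-based luminescence readout across a dose range, run as a counterscreen for daf-12 agonists; HEK293 cells with Gal4-LXR fusion and GAL4-driven luciferase reporter; potency for activation of Gal4-LXR reporter so compounds are agonists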
T7 sequence (P55055 whole entry): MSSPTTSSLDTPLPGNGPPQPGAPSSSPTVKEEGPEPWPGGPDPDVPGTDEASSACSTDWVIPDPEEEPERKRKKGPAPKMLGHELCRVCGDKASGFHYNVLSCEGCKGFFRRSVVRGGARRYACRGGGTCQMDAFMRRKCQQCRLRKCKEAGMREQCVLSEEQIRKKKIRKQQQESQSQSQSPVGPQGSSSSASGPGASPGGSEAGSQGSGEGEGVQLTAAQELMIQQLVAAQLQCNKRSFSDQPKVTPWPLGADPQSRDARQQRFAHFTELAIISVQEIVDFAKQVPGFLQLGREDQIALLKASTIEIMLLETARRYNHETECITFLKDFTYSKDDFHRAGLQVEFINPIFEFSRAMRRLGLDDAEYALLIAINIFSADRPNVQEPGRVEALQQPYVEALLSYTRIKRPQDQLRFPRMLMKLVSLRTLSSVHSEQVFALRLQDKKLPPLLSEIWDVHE

[30] = target: T3, Voltage-gated inwardly rectifying potassium channel KCNH2; assay: concentration-dependent hERG rescue from blockers – cell-based, thallium flux, dose response (AID 2121); type: ADME

T3 sequence (Q12809 whole entry): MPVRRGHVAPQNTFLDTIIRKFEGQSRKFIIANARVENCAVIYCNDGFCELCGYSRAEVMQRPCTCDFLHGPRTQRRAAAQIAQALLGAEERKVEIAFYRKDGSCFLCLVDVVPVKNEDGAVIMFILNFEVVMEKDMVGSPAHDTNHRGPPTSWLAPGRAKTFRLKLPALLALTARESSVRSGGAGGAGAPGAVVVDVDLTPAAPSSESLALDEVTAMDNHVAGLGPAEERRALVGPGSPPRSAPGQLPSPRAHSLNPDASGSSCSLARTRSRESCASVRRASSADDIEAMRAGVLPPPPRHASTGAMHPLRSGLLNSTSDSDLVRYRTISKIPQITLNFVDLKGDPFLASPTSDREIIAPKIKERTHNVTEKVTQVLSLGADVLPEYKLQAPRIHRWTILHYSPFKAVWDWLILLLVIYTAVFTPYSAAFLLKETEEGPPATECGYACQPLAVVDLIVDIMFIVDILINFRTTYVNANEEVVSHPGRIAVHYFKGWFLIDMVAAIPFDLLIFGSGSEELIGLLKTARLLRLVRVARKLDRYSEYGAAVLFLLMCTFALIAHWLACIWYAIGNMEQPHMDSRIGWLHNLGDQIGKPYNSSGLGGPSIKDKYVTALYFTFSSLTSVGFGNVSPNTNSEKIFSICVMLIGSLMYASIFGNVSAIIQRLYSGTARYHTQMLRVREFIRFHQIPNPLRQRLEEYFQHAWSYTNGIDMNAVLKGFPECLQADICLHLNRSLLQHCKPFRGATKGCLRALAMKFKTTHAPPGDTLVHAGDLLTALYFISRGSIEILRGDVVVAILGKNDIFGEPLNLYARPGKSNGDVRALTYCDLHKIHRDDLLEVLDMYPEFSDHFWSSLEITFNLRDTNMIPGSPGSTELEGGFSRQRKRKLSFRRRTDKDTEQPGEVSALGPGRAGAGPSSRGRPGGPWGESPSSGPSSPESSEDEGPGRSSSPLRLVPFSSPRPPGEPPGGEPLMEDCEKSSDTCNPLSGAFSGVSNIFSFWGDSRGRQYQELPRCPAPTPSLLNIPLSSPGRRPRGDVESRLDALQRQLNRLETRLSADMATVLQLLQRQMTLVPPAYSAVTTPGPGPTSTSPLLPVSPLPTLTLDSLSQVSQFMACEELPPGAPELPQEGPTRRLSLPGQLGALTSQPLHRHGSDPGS
T2 sequence (Q7T1G6 whole entry): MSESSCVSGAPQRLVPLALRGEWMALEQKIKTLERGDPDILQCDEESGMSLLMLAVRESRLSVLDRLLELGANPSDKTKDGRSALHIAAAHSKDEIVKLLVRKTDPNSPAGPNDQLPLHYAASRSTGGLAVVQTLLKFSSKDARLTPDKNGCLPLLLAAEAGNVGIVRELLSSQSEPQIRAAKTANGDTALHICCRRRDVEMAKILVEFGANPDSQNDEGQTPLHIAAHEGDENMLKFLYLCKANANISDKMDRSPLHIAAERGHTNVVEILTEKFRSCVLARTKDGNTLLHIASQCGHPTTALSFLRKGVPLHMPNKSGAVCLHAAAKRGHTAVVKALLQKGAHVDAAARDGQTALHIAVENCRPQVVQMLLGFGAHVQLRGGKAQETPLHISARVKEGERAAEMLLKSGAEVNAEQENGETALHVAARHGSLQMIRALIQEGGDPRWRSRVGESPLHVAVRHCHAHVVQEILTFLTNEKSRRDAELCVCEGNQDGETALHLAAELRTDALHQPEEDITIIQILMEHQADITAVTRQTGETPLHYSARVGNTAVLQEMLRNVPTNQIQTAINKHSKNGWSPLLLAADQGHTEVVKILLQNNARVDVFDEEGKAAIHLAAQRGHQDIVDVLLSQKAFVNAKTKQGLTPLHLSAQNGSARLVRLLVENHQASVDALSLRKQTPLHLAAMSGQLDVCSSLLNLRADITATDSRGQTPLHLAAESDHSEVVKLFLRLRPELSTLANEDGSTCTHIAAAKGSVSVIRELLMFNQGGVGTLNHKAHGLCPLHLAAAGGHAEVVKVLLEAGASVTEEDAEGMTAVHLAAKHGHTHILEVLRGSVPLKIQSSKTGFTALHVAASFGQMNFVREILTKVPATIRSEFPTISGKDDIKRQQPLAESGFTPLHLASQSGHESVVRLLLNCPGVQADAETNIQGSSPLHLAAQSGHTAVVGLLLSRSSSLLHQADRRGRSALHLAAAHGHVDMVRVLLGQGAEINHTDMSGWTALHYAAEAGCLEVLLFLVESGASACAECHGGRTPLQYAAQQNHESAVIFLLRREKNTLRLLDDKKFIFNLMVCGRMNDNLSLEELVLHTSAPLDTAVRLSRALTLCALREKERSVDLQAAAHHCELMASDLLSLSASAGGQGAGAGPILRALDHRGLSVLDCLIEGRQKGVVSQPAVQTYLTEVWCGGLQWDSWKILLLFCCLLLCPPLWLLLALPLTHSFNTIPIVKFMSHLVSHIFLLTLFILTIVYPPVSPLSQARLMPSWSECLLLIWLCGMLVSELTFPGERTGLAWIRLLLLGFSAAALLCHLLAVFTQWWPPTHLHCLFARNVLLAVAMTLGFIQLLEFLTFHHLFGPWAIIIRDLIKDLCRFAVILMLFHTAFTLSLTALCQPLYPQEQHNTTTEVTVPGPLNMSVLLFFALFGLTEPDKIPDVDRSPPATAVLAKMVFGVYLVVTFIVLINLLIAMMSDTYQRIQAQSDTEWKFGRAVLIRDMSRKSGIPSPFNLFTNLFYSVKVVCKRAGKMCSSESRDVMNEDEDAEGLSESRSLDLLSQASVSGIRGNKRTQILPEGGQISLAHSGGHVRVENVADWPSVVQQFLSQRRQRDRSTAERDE
Sequence of Sphingosine 1-phosphate receptor 1 (P21453 whole entry): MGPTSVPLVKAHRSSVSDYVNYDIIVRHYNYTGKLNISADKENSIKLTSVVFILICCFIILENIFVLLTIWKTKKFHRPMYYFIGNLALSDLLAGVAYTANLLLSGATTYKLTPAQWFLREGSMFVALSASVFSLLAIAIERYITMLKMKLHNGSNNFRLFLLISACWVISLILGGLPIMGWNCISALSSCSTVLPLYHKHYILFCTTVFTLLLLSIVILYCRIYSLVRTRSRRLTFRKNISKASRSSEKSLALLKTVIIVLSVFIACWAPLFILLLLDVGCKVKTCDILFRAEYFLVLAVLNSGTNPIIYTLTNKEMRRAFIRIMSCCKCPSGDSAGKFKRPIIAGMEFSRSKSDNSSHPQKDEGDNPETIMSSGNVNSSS
Sequence of Large T antigen (P03070 whole entry): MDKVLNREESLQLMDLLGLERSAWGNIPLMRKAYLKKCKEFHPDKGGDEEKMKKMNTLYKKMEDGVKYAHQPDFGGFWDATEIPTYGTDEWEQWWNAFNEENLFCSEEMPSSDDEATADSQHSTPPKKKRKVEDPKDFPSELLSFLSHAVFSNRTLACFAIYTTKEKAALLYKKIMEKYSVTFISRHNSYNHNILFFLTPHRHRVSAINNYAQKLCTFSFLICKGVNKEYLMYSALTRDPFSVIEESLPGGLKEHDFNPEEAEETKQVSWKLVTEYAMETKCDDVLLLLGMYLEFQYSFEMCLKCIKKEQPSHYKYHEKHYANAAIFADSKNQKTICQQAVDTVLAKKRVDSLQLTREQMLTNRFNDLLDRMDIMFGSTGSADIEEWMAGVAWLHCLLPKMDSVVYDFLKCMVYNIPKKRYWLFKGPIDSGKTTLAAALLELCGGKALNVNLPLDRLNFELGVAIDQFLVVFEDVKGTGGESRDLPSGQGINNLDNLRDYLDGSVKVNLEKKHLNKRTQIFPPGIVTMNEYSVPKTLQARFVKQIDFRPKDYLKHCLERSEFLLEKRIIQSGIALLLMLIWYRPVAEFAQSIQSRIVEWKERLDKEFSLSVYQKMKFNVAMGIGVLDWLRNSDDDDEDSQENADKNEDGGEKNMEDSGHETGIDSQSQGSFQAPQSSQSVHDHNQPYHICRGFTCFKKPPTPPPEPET
Sequence of Neuropeptide Y receptor type 2 (P49146 whole entry): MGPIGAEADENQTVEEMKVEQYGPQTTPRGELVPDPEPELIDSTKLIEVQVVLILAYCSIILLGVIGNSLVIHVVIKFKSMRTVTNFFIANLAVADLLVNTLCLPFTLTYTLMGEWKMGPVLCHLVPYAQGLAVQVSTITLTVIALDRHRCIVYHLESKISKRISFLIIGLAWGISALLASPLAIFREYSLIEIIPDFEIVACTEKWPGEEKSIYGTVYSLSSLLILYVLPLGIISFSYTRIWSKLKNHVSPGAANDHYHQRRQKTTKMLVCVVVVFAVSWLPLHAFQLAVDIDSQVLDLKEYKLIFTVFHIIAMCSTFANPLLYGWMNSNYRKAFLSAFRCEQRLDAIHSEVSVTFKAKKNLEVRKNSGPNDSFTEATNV
Sequence of Paired box protein Pax-8 (Q06710 whole entry): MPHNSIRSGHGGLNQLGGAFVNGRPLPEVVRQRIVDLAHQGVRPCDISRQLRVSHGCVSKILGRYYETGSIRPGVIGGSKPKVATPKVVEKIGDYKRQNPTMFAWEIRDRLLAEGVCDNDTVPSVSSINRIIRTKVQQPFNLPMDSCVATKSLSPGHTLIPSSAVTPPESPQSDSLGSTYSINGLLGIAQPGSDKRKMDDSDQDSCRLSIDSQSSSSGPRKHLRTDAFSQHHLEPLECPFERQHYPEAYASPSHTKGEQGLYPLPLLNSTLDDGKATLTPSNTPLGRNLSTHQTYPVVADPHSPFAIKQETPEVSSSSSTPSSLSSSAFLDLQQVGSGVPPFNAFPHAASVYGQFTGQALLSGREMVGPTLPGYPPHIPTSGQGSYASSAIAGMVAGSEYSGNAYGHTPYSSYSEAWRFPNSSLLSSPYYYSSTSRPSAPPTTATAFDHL
Sequence of Neuropeptide Y receptor type 1 (P25929 whole entry): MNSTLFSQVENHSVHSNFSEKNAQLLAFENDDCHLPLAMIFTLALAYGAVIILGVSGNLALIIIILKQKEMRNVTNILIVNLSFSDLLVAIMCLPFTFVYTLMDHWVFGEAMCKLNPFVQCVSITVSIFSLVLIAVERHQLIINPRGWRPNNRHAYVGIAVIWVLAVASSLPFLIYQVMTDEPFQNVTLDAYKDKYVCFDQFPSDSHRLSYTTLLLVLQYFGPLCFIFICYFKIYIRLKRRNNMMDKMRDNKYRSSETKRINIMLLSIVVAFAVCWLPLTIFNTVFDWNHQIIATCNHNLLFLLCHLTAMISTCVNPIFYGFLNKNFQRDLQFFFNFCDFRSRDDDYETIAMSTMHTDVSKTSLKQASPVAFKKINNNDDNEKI

SMILES: COC(=O)CSc1nc(-c2ccccc2)cc(-c2ccco2)c1C#N
- IC50 (Ephrin type-A receptor 4): > 100 µM (not active)

SMILES: Cc1ccc(S(=O)(=O)n2nccc2-c2c(-c3ccc(Cl)cc3)noc2C)cc1
- EC50 (Mucolipin-3 [1]): 0.253 µM (active)
- EC50 (Mucolipin-3 [2]): 0.325 µM (active)
- EC50 (Ion channel NompC [3]): > 29.9 µM (not active)
- EC50 (Ion channel NompC [4]): > 29.9 µM (not active)

SMILES: Cc1c(NC(=O)COC(=O)c2cc(-c3ccc(-c4ccccc4)cc3)nc3ccccc23)c(=O)n(-c2ccccc2)n1C
- CC50 [5]: 2.93 µM (active)
- IC50 (Vero [6]): 21.1 µM (active)
- IC50 (Vero [7]): 2.09 µM (active)
- CC50 (Vero [8]): 11.5 µM (active)
- IC50 (cells): 0.53 µM (active)

SMILES: N#C/C(=C\c1ccc(O)c(O)c1)C(=O)NCCCc1ccccc1
- IC50 [9]: 1.7 µM (active)
- IC50 (Large T antigen): 21 µM (active)
- AC50 [10]: 15.8 µM (inconclusive)

SMILES: O=c1c(Cl)c(Cl)cnn1-c1ccccc1
- EC50 [11]: 5.45 µM (active)
- IC50 [12]: 1.86 µM (active)
- IC50 [13]: 8.71 µM (active)
- AC50 [14]: 9.54 µM (active)
- AC50 (A-375): 23.8 µM (active)
- IC50 [15]: 49.7 µM (inactive)
- AC50 (Paired box protein Pax-8): 6.1 µM (active)
- AC50 [16]: 7.52 µM (active)
- AC50 [17]: 14.4 µM (active)
- AC50 [18]: 19 µM (active)
- AC50 [19]: 25.8 µM (active)
- AC50 [20]: 16.3 µM (active)
- AC50 [21]: 4.49 µM (active)

SMILES: Clc1ccc(Nc2ccc(Cl)nn2)cc1
- EC50 [11]: > 195 µM (not active)
- EC50 [22]: 7.86 µM (active)

SMILES: Cc1ccc(NC(S)=NCc2ccc3c(c2)OCO3)cc1C
- IC50 [23]: 9.96 µM (active)
- IC50 [24]: 10 µM (not active)

SMILES: CCOC(=O)c1c[nH]nc1N=C(S)Nc1ccccc1
- EC50 [25]: 0.352 µM (active)
- EC50 [26]: < 0.1 µM (active)
- EC50 (H4): > 120 µM (not active)
- EC50 [27]: 0.324 µM (active)
- EC50 [28]: 0.38 µM (active)
- EC50 [29]: > 67.6 µM (inactive)

SMILES: O=C(/C=C/c1ccccc1)CC(=O)c1ccccc1O
- EC50 [30]: 2.67 µM (active)
